# Measurements published in ChEMBL document CHEMBL1201861, “Genomics of Drug Sensitity in Cancer screening data, Wellcome Trust Sanger Institute”.
# pIC50: −log10 of the molar value.
# What was measured:
# Experiment in all cases: cells
# SW13 = type: functional, cell-based; conditions: Homo sapiens;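 further: IC50 is inhibition of SW13 cell growth, read out with a cell viability assay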
# Description: SANGER: Inhibition of human SW13 cell growth in a cell viability assay.
# SK-MEL-28 = type: functional, cell-based; conditions: Homo sapiens;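 further: growth inhibition of human SK-MEL-28 cells, read out with a cell viability assay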
# Description: SANGER: Inhibition of human SK-MEL-28 cell growth in a cell viability assay.
# KYSE-270 = type: functional, cell-based; conditions: Homo sapiens;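 further: cell growth inhibition measured with a viability assay in the human KYSE-270 line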
# Description: SANGER: Inhibition of human KYSE-270 cell growth in a cell viability assay.
# SW1088 = type: functional, cell-based; conditions: Homo sapiens;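 further: growth inhibition of human SW1088 cells, read out by a cell viability assay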
# Description: SANGER: Inhibition of human SW1088 cell growth in a cell viability assay.
# DMS-273 = type: functional, cell-based; conditions: Homo sapiens
# Description: SANGER: Inhibition of human DMS-273 cell growth in a cell viability assay.
# G-402 = type: functional, cell-based; conditions: Homo sapiens
# Description: SANGER: Inhibition of human G-402 cell growth in a cell viability assay.
# WM-115 = type: functional, cell-based; conditions: Homo sapiens
# Description: SANGER: Inhibition of human WM-115 cell growth in a cell viability assay.
# MKN-1 = type: functional, cell-based; conditions: Homo sapiens;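 further: growth inhibition of human MKN1 cells, read out by a cell viability measurement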
# Description: SANGER: Inhibition of human MKN1 cell growth in a cell viability assay.
# MC-IXC = type: functional, cell-based; conditions: Homo sapiens;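 further: growth inhibition of MC-IXC cells, read out with a cell viability assay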
# Description: SANGER: Inhibition of human MC-IXC cell growth in a cell viability assay.
# OAW-28 = type: functional, cell-based; conditions: Homo sapiens;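 further: growth inhibition of OAW-28 cells, read out with a cell viability assay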
# Description: SANGER: Inhibition of human OAW-28 cell growth in a cell viability assay.
# MDA-MB-231 = type: functional, cell-based; conditions: Homo sapiens
# Description: SANGER: Inhibition of human MDA-MB-231 cell growth in a cell viability assay.
# MeWo = type: functional, cell-based; conditions: Homo sapiens;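 further: growth inhibition of MeWo cells, determined by a cell viability readout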
# Description: SANGER: Inhibition of human Mewo cell growth in a cell viability assay.
# Ca9-22 = type: functional, cell-based; conditions: Homo sapiens;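 further: growth inhibition of Ca9-22 cells, read out with a cell viability assay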
# Description: SANGER: Inhibition of human Ca9-22 cell growth in a cell viability assay.
# BXPC-3 = type: functional, cell-based; conditions: Homo sapiens;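 further: growth inhibition of human BxPC-3 cells, read out by a cell viability assay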
# Description: SANGER: Inhibition of human BxPC-3 cell growth in a cell viability assay.
# CHP-212 = type: functional, cell-based; conditions: Homo sapiens
# Description: SANGER: Inhibition of human CHP-212 cell growth in a cell viability assay.
# ACHN = type: functional, cell-based; conditions: Homo sapiens;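 further: cell viability read-out used to gauge how strongly growth of human ACHN cells is suppressed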
# Description: SANGER: Inhibition of human ACHN cell growth in a cell viability assay.
# YT = type: functional, cell-based, Homo sapiens; conditions: Homo sapiens, YT
# Description: SANGER: Inhibition of human YT cell growth in a cell viability assay.
# WSU-NHL = type: functional, cell-based, Homo sapiens; conditions: Homo sapiens, WSU-NHL;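 further: growth inhibition of human WSU-NHL cells, read out with a cell viability assay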
# Description: SANGER: Inhibition of human WSU-NHL cell growth in a cell viability assay.
# LoVo = type: functional, cell-based; conditions: Homo sapiens;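 further: growth inhibition of human LoVo cells, read out with a cell viability assay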
# Description: SANGER: Inhibition of human LoVo cell growth in a cell viability assay.
# LB373-MEL-D = type: functional, cell-based, Homo sapiens; conditions: Homo sapiens, LB373-MEL-D;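 further: growth inhibition of the cell line, read out in a cell viability assay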
# Description: SANGER: Inhibition of human LB373-MEL-D cell growth in a cell viability assay.
# OVCAR-5 = type: functional, cell-based; conditions: Homo sapiens;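 further: growth inhibition of human OVCAR-5 cells, read out with a cell viability assay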
# Description: SANGER: Inhibition of human OVCAR-5 cell growth in a cell viability assay.
# EB-3 = type: functional, cell-based, Homo sapiens; conditions: Homo sapiens, EB-3;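 further: human EB-3 cells, growth inhibition read out via a cell viability assay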
# Description: SANGER: Inhibition of human EB-3 cell growth in a cell viability assay.
# SK-HEP1 = type: functional, cell-based, SK-HEP-1; conditions: Homo sapiens;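 further: cell viability readout used to quantify reduction in proliferation of human SK-HEP-1 cells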
# Description: SANGER: Inhibition of human SK-HEP-1 cell growth in a cell viability assay.
# NCI-H716 = type: functional, cell-based, Homo sapiens; conditions: Homo sapiens, NCI-H716;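 further: growth inhibition of human NCI-H716 cells, measured by a cell viability assay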
# Description: SANGER: Inhibition of human NCI-H716 cell growth in a cell viability assay.
# P31-FUJ = type: functional, cell-based, Homo sapiens; conditions: Homo sapiens, P31-FUJ;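 further: growth inhibition of P31-FUJ cells, read out with a viability assay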
# Description: SANGER: Inhibition of human P31-FUJ cell growth in a cell viability assay.
# G-361 = type: functional, cell-based; conditions: Homo sapiens
# NCI-H650 = type: functional, cell-based; conditions: Homo sapiens;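 further: growth inhibition of NCI-H650 cells, read out by a viability assay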
# Description: SANGER: Inhibition of human NCI-H650 cell growth in a cell viability assay.
# CWR22R = type: functional, cell-based; conditions: Homo sapiens, 22Rv1;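 further: growth inhibition of 22Rv1 cells, read out with a cell viability assay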
# Description: SANGER: Inhibition of human 22RV1 cell growth in a cell viability assay.
# CAMA-1 = type: functional, cell-based; conditions: Homo sapiens;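 further: growth inhibition of CAMA-1 cells, read out with a cell viability assay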
# Description: SANGER: Inhibition of human CAMA-1 cell growth in a cell viability assay.
# NCI-H810 = type: functional, cell-based; conditions: Homo sapiens;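 further: IC50 reflects inhibition of cancer cell line growth, read out with a cell viability assay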
# Description: SANGER: Inhibition of human NCI-H810 cell growth in a cell viability assay.
# HuTu80 = type: functional, cell-based, Homo sapiens, HUTU-80; conditions: Homo sapiens, HuTu80;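 further: growth inhibition of HuTu80 human cells, determined with a cell viability readout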
# Description: SANGER: Inhibition of human HUTU-80 cell growth in a cell viability assay.
# IMR-5 = type: functional, cell-based, Homo sapiens; conditions: Homo sapiens, IMR-5; read-out: IC50;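 further: growth inhibition of human IMR-5 cells, read out with a cell viability assay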
# Description: SANGER: Inhibition of human IMR-5 cell growth in a cell viability assay.
# RD = type: functional, cell-based; conditions: Homo sapiens
# Description: SANGER: Inhibition of human RD cell growth in a cell viability assay.
# SNU-387 = type: functional, cell-based; conditions: Homo sapiens
# Description: SANGER: Inhibition of human SNU-387 cell growth in a cell viability assay.
# SW1463 = type: functional, cell-based; conditions: Homo sapiens;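 further: growth inhibition of SW1463 cells, determined with a cell viability assay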
# Description: SANGER: Inhibition of human SW1463 cell growth in a cell viability assay.
# COR-L105 = type: functional, cell-based; conditions: Homo sapiens;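 further: cell growth inhibition determined with a viability assay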
# Description: SANGER: Inhibition of human COR-L105 cell growth in a cell viability assay.
# NCI-H2228 = type: functional, cell-based; conditions: Homo sapiens;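 further: growth inhibition of human NCI-H2228 cells, read out by a cell viability assay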
# Description: SANGER: Inhibition of human NCI-H2228 cell growth in a cell viability assay.
# NCI-H889 = type: functional, cell-based, Homo sapiens; conditions: Homo sapiens, NCI-H889;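 further: cell growth inhibition of the cell line, read out with a viability assay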
# Description: SANGER: Inhibition of human NCI-H889 cell growth in a cell viability assay.
# HuO-3N1 = type: functional, cell-based; conditions: Homo sapiens;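 further: cell viability readout used to measure how strongly compounds suppress proliferation of human HuO-3N1 cells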
# Description: SANGER: Inhibition of human HuO-3N1 cell growth in a cell viability assay.
# CAPAN-1 = type: functional, cell-based; conditions: Homo sapiens;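 further: growth suppression of CAPAN-1 cells, read out by a cell viability assay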
# Description: SANGER: Inhibition of human CAPAN-1 cell growth in a cell viability assay.
# NCI-H2030 = type: functional, cell-based; conditions: Homo sapiens;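 further: growth inhibition of human NCI-H2030 cells, read out by a cell viability assay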
# Description: SANGER: Inhibition of human NCI-H2030 cell growth in a cell viability assay.
# ChaGo-K-1 = type: functional, cell-based; conditions: Homo sapiens;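 further: growth inhibition of ChaGo-K-1 cells, read out with a cell viability assay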
# Description: SANGER: Inhibition of human ChaGo-K-1 cell growth in a cell viability assay.
# SK-LU-1 = type: functional, cell-based; conditions: Homo sapiens;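 further: cell viability assay measuring growth inhibition of human SK-LU-1 cells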
# Description: SANGER: Inhibition of human SK-LU-1 cell growth in a cell viability assay.
# BHY = type: functional, cell-based; conditions: Homo sapiens;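 further: cell growth inhibition read out by a viability assay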
# Description: SANGER: Inhibition of human BHY cell growth in a cell viability assay.
# KARPAS-422 = type: functional, cell-based, Homo sapiens; conditions: Homo sapiens, KARPAS-422
# Description: SANGER: Inhibition of human KARPAS-422 cell growth in a cell viability assay.
# HTC-C3 = type: functional, cell-based; conditions: Homo sapiens;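 further: inhibition of cell growth, read out with a cell viability assay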
# Description: SANGER: Inhibition of human HTC-C3 cell growth in a cell viability assay.
# LU-165 = type: functional, cell-based, Homo sapiens; conditions: Homo sapiens, LU-165
# Description: SANGER: Inhibition of human LU-165 cell growth in a cell viability assay.
# HSC-2 = type: functional, cell-based; conditions: Homo sapiens;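 further: growth inhibition of human HSC-2 cells, read out by a cell viability assay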
# Description: SANGER: Inhibition of human HSC-2 cell growth in a cell viability assay.
# SNU-423 = type: functional, cell-based; conditions: Homo sapiens
# Description: SANGER: Inhibition of human SNU-423 cell growth in a cell viability assay.
# ESS-1 = type: functional, cell-based; conditions: Homo sapiens;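 further: growth inhibition of human ESS-1 cells, read out by a cell viability assay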
# Description: SANGER: Inhibition of human ESS-1 cell growth in a cell viability assay.
# SW1783 = type: functional, cell-based; conditions: Homo sapiens;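 further: cell growth inhibition measured with a viability assay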
# Description: SANGER: Inhibition of human SW1783 cell growth in a cell viability assay.
# SW-620 = type: functional, cell-based; conditions: Homo sapiens;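 further: growth inhibition of human SW-620 cells, measured by a cell viability assay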
# Description: SANGER: Inhibition of human SW620 cell growth in a cell viability assay.
# NB12 = type: functional, cell-based; conditions: Homo sapiens;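 further: growth inhibition of human NB12 cells, read out by a cell viability assay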
# Description: SANGER: Inhibition of human NB12 cell growth in a cell viability assay.
# MFH-ino = type: functional, cell-based, Homo sapiens; conditions: Homo sapiens, MFH-ino;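 further: growth inhibition of human MFH-ino cells, read out by a cell viability assay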
# Description: SANGER: Inhibition of human MFH-ino cell growth in a cell viability assay.
# NCI-H2342 = type: functional, cell-based; conditions: Homo sapiens;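 further: growth inhibition of the cancer cell line, determined with a cell viability assay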
# Description: SANGER: Inhibition of human NCI-H2342 cell growth in a cell viability assay.
# CAL-72 = type: functional, cell-based; conditions: Homo sapiens;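 further: cell viability assay measuring inhibition of proliferation in the CAL-72 cell line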
# Description: SANGER: Inhibition of human CAL-72 cell growth in a cell viability assay.
# SCC-25 = type: functional, cell-based; conditions: Homo sapiens;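 further: growth inhibition of SCC-25 cells, measured with a cell viability assay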
# Description: SANGER: Inhibition of human SCC-25 cell growth in a cell viability assay.
# HT-1376 = type: functional, cell-based; conditions: Homo sapiens
# Description: SANGER: Inhibition of human HT-1376 cell growth in a cell viability assay.
# NCI-H1755 = type: functional, cell-based; conditions: Homo sapiens;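 further: cell viability readout used to measure growth inhibition of NCI-H1755 cells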
# Description: SANGER: Inhibition of human NCI-H1755 cell growth in a cell viability assay.
# KMS-12-PE = type: functional, cell-based, Homo sapiens; conditions: Homo sapiens, KMS-12-PE;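 further: growth inhibition of human KMS-12-PE cells, measured with a cell viability assay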
# Description: SANGER: Inhibition of human KMS-12-PE cell growth in a cell viability assay.
structure (smiles),measurement,setting,value
CCCCCCCCCCCC1=C(O)C(=O)C=C(O)C1=O [EMBELIN],pIC50,SW13,4.90
same,pIC50,SK-MEL-28,5.07
same,pIC50,KYSE-270,5.05
same,pIC50,SW1088,4.78
same,pIC50,DMS-273,5.39
same,pIC50,G-402,4.95
same,pIC50,WM-115,4.86
same,pIC50,MKN-1,4.91
same,pIC50,MC-IXC,5.27
same,pIC50,OAW-28,4.70
same,pIC50,MDA-MB-231,4.66
same,pIC50,MeWo,4.80
same,pIC50,Ca9-22,4.91
same,pIC50,BXPC-3,5.19
same,pIC50,CHP-212,5.51
same,pIC50,ACHN,< 4.49
same,pIC50,YT,4.89
same,pIC50,WSU-NHL,4.87
same,pIC50,LoVo,5.41
same,pIC50,LB373-MEL-D,4.62
same,pIC50,OVCAR-5,< 4.49
same,pIC50,EB-3,4.68
same,pIC50,SK-HEP1,5.02
same,pIC50,NCI-H716,< 4.49
same,pIC50,P31-FUJ,< 4.49
same,pIC50,G-361,5.23
same,pIC50,NCI-H650,4.78
same,pIC50,CWR22R,4.65
same,pIC50,CAMA-1,5.15
same,pIC50,NCI-H810,5.11
same,pIC50,HuTu80,5.63
same,pIC50,IMR-5,< 4.49
same,pIC50,RD,4.82
same,pIC50,SNU-387,4.57
same,pIC50,SW1463,< 4.49
same,pIC50,COR-L105,4.65
same,pIC50,NCI-H2228,< 4.49
same,pIC50,NCI-H889,< 4.49
same,pIC50,HuO-3N1,< 4.49
same,pIC50,CAPAN-1,5.05
same,pIC50,NCI-H2030,4.90
same,pIC50,ChaGo-K-1,5.15
same,pIC50,SK-LU-1,5.14
same,pIC50,BHY,5.22
same,pIC50,KARPAS-422,4.68
same,pIC50,HTC-C3,4.89
same,pIC50,LU-165,< 4.49
same,pIC50,HSC-2,5.13
same,pIC50,SNU-423,< 4.49
same,pIC50,ESS-1,5.03
same,pIC50,SW1783,5.00
same,pIC50,SW-620,4.54
same,pIC50,NB12,5.08
same,pIC50,MFH-ino,5.25
same,pIC50,NCI-H2342,5.16
same,pIC50,CAL-72,4.98
same,pIC50,SCC-25,< 4.49
same,pIC50,HT-1376,5.23
same,pIC50,NCI-H1755,< 4.49
same,pIC50,KMS-12-PE,< 4.49
C/C(=C\c1csc(C)n1)[C@@H]1C[C@@H]2O[C@]2(C)CCC[C@H](C)[C@H](O)[C@@H](C)C(=O)C(C)(C)[C@@H](O)CC(=O)O1 [PATUPILONE],pIC50,SW13,8.30
same,pIC50,SK-MEL-28,< 7.49
same,pIC50,KYSE-270,9.35
same,pIC50,SW1088,8.24
same,pIC50,DMS-273,8.79
same,pIC50,G-402,8.28
same,pIC50,WM-115,< 7.49
same,pIC50,MKN-1,8.58
same,pIC50,MC-IXC,8.51
same,pIC50,OAW-28,8.10
same,pIC50,MDA-MB-231,7.61
same,pIC50,MeWo,< 7.49
same,pIC50,Ca9-22,8.95
same,pIC50,BXPC-3,8.76
same,pIC50,CHP-212,8.23
same,pIC50,ACHN,9.13
same,pIC50,YT,7.73
same,pIC50,WSU-NHL,8.38
same,pIC50,LoVo,8.73
same,pIC50,LB373-MEL-D,7.74
same,pIC50,OVCAR-5,8.55
same,pIC50,EB-3,< 7.49
same,pIC50,SK-HEP1,8.95
same,pIC50,NCI-H716,< 7.49
same,pIC50,P31-FUJ,< 7.49
same,pIC50,G-361,9.15
same,pIC50,NCI-H650,9.77
same,pIC50,CWR22R,8.08
same,pIC50,CAMA-1,7.89
same,pIC50,NCI-H810,9.49
same,pIC50,HuTu80,9.48
same,pIC50,IMR-5,8.02
same,pIC50,RD,8.35
same,pIC50,SNU-387,8.25
same,pIC50,SW1463,< 7.49
same,pIC50,COR-L105,8.02
same,pIC50,NCI-H2228,9.33
same,pIC50,NCI-H889,< 7.49
same,pIC50,HuO-3N1,< 7.49
same,pIC50,CAPAN-1,8.40
same,pIC50,NCI-H2030,9.16
same,pIC50,ChaGo-K-1,8.02
same,pIC50,SK-LU-1,9.06
same,pIC50,BHY,9.71
same,pIC50,KARPAS-422,7.97
same,pIC50,HTC-C3,8.53
same,pIC50,LU-165,< 7.49
same,pIC50,HSC-2,9.44
same,pIC50,SNU-423,8.78
same,pIC50,ESS-1,8.82
same,pIC50,SW1783,8.83
same,pIC50,SW-620,9.19
same,pIC50,NB12,< 7.49
same,pIC50,MFH-ino,9.05
same,pIC50,NCI-H2342,9.24
same,pIC50,CAL-72,< 7.49
same,pIC50,SCC-25,8.91
same,pIC50,HT-1376,7.67
same,pIC50,NCI-H1755,< 7.49
same,pIC50,KMS-12-PE,< 7.49
